One molecule from PMC5361737, “Potent and Selective KDM5 Inhibitor Stops Cellular Demethylation of H3K4me3 at Transcription Start Sites and Proliferation of MM1S Myeloma Cells” (Cell Chemical Biology, 2017) can be followed below.

One data set has as its target 5-HT6 (h) (Homo sapiens, UniProt P50406). The data set is described as follows: Cerep Express Panel, agonist radioligand. In kind it is binding. The conditions noted are these: read-out: % Inhibition of reference (10 µM).
A further data set deals with PHF8 (Homo sapiens, UniProt Q9UPP1). The data set is described as follows: 2-Oxoglutarate oxygenase assay panel, AlphaScreen assay. It counts as biochemical. Particulars: ± SEM.
Sequence of PHF8 (Q9UPP1 whole entry, species assumed): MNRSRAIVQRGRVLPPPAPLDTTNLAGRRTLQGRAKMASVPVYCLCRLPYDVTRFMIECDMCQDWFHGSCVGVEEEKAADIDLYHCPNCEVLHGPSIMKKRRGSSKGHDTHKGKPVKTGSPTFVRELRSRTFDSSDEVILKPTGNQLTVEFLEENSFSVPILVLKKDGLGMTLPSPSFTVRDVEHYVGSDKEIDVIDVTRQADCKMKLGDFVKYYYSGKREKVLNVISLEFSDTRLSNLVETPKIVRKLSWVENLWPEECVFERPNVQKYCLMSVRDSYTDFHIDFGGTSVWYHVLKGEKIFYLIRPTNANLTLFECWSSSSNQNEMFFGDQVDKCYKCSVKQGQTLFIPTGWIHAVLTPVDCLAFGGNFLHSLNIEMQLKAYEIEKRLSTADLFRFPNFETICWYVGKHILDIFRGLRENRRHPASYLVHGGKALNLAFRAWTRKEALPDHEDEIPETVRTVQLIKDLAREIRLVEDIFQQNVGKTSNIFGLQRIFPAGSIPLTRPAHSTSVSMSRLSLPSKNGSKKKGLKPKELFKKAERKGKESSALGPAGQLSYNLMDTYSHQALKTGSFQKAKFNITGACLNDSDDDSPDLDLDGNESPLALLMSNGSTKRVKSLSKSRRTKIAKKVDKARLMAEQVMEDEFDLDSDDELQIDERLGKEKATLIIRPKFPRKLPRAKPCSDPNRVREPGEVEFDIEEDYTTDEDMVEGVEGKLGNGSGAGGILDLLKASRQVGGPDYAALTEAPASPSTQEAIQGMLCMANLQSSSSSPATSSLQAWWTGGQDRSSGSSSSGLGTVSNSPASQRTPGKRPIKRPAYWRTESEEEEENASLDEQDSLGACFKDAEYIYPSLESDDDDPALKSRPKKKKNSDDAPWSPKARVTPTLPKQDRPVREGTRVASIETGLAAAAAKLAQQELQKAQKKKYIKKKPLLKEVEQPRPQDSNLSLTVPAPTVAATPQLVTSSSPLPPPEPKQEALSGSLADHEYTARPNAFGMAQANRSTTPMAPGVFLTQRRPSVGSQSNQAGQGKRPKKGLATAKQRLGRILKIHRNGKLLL
The next data set deals with D1 (h) (Homo sapiens, UniProt P21728). In words: Cerep Express Panel, antagonist radioligand. In kind it is binding. Particulars: read-out: % Inhibition of reference (10 µM).
A further data set has as its target T1, CCR1 (h) (Homo sapiens, UniProt P32246).
T1 sequence (P32246 1-355): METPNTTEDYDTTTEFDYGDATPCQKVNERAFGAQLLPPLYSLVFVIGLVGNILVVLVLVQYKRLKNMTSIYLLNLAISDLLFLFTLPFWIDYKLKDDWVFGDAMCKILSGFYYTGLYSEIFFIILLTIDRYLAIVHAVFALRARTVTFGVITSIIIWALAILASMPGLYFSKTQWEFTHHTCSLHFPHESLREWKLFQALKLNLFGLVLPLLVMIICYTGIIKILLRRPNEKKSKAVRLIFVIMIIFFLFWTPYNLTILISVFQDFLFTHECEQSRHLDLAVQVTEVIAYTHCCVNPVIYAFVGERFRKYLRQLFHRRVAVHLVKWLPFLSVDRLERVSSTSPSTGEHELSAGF
In words: Cerep Express Panel, agonist radioligand. In kind it is binding. Particulars: read-out: % Inhibition of reference (10 µM).

A further data set deals with A3 (h) (Homo sapiens, UniProt P0DMS8). The data set is described as follows: Cerep Express Panel, agonist radioligand. It counts as binding. Particulars: read-out: % Inhibition of reference (10 µM).
Sequence of A3 (h) (P0DMS8 whole entry): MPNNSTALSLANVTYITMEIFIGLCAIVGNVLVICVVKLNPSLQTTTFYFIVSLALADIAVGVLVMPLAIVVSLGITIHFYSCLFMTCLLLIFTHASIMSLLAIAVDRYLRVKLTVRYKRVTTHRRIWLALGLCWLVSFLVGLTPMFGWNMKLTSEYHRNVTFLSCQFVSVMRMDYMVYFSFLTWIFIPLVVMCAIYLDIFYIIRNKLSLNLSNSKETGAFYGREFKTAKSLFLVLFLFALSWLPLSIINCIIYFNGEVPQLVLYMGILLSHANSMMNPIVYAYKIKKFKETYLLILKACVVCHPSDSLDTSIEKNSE
In a further data set the target is beta 1 (h) (Homo sapiens, UniProt P08588). The data set is described as follows: Cerep Express Panel, agonist radioligand. It counts as binding. Particulars: read-out: % Inhibition of reference (10 µM).
Sequence of beta 1 (h) (P08588 whole entry): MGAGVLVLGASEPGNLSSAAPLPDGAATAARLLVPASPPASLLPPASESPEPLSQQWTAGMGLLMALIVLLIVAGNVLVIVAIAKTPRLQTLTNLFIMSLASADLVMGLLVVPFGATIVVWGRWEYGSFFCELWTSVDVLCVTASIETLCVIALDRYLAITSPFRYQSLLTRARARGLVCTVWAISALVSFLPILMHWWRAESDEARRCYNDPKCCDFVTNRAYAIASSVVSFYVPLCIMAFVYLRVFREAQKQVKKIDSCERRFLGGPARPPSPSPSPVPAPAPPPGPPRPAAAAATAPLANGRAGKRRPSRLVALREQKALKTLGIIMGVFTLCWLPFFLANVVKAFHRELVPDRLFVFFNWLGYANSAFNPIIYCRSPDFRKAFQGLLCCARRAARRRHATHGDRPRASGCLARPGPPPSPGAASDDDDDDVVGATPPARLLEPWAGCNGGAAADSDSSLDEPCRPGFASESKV
Data set [1] is described as follows: Liver microsomes stability. In kind it is in vitro ADME. Particulars: human liver microsomes.
In a further data set the test system is other 2-OG oxygenases. In words: Selectivity panel, other 2-OG oxygenases (AlphaScreen or MALDI-TOF). It counts as biochemical. The conditions noted are these: AlphaScreen or MALDI-TOF enzymatic assays; read-out: no inhibition below (any of the other 2-OG oxygenases).
The test system of the next data set is Na+ channel (site 2). The data set is described as follows: Cerep Express Panel, antagonist radioligand. In kind it is binding. The conditions noted are these: 10 µM.
The next data set concerns the target CCK1 (CCKA) (h) (Homo sapiens, UniProt P32238). The data set is described as follows: Cerep Express Panel, agonist radioligand. It counts as binding. The conditions noted are these: read-out: % Inhibition of reference (10 µM).
The target in another data set is beta 2 (h) (Homo sapiens, UniProt P07550). In words: Cerep Express Panel, agonist radioligand. It counts as binding. Particulars: read-out: % Inhibition of reference (10 µM).
The target of a further data set is GAL2 (h) (Homo sapiens, UniProt O43603). The data set is described as follows: Cerep Express Panel, agonist radioligand. Particulars: read-out: % Inhibition of reference (10 µM). In kind it is binding.
Sequence of GAL2 (h) (O43603 whole entry): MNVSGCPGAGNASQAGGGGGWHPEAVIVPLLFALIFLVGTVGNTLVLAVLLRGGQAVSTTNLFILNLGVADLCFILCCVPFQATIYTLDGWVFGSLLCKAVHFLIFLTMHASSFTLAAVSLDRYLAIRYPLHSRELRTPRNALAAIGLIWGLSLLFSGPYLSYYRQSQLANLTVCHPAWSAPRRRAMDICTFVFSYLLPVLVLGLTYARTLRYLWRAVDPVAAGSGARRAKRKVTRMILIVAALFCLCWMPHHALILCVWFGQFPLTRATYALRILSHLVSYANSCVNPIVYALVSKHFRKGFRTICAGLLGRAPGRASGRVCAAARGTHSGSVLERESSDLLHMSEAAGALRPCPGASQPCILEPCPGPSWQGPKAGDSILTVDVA
The next data set concerns SKCa channel. The data set is described as follows: Cerep Express Panel, antagonist radioligand. In kind it is binding.
The next data set has as its target FIH (Homo sapiens, UniProt Q9NWT6). The data set is described as follows: 2-Oxoglutarate oxygenase assay panel, MALDI-TOF assay. It counts as biochemical.
The target of another data set is 5-HT2A (h) (Homo sapiens, UniProt P28223). The data set is described as follows: Cerep Express Panel, antagonist radioligand. In kind it is binding. Particulars: read-out: % Inhibition of reference (10 µM).
For the next data set, the system named is H3K4me3 in MM1S cells. The data set is described as follows: Quantitative ChIP-seq (ChIP-Rx spike-in) of H3K4me3. In kind it is cell-based, human. The conditions noted are these: 50 μM, 7 days, spike-in quantification. The protocol: Immediately prior to fixation in 1% formaldehyde, three million sf9 cells were added to each sample. Cells were fixed for 8 min at room temperature, lysed, and sonicated on a Bioruptor Pico for 3 repeats of 10 cycles of 30 s on/30 s off. The sonicated lysates were incubated for 1 hr at 4°C with pre-blocked protein A Sepharose beads, prior to overnight incubation with 1 μg of anti-H3K4me3 antibody (Millipore cat no. 07–473 lot no. 2207281). Pre-blocked Sepharose beads were added for 1 hr, the beads washed, and DNA was eluted followed by Proteinase K digestion. Libraries were constructed using the NebNext Ultra DAN Kit (NEB) and sequenced on an Illumina NextSeq 500 platform. Libraries were also generated for the input of each condition and sequenced in a similar manner.
Sequencing reads were aligned to the concatenated human/sf9 genome generated earlier using Bowtie (version 1.1.2), allowing only reads that matched uniquely to one location. The number of reads mapping to the human and sf9 genomes separately in each condition was calculated. The number of sf9 reads-per-million total aligned reads was calculated for each pull-down condition and corrected according to the percentage of sf9 reads in the corresponding input samples. A scaling factor for normalization was then calculated for each pull-down based on the reciprocal of the corrected sf9 reads per million for each sample. […]

A further data set deals with KDM3A (Homo sapiens, UniProt Q9Y4C1). In words: 2-Oxoglutarate oxygenase assay panel, AlphaScreen assay. (Bead proximity is the source of the signal in Alpha formats.)
Sequence of KDM3A (Q9Y4C1 whole entry): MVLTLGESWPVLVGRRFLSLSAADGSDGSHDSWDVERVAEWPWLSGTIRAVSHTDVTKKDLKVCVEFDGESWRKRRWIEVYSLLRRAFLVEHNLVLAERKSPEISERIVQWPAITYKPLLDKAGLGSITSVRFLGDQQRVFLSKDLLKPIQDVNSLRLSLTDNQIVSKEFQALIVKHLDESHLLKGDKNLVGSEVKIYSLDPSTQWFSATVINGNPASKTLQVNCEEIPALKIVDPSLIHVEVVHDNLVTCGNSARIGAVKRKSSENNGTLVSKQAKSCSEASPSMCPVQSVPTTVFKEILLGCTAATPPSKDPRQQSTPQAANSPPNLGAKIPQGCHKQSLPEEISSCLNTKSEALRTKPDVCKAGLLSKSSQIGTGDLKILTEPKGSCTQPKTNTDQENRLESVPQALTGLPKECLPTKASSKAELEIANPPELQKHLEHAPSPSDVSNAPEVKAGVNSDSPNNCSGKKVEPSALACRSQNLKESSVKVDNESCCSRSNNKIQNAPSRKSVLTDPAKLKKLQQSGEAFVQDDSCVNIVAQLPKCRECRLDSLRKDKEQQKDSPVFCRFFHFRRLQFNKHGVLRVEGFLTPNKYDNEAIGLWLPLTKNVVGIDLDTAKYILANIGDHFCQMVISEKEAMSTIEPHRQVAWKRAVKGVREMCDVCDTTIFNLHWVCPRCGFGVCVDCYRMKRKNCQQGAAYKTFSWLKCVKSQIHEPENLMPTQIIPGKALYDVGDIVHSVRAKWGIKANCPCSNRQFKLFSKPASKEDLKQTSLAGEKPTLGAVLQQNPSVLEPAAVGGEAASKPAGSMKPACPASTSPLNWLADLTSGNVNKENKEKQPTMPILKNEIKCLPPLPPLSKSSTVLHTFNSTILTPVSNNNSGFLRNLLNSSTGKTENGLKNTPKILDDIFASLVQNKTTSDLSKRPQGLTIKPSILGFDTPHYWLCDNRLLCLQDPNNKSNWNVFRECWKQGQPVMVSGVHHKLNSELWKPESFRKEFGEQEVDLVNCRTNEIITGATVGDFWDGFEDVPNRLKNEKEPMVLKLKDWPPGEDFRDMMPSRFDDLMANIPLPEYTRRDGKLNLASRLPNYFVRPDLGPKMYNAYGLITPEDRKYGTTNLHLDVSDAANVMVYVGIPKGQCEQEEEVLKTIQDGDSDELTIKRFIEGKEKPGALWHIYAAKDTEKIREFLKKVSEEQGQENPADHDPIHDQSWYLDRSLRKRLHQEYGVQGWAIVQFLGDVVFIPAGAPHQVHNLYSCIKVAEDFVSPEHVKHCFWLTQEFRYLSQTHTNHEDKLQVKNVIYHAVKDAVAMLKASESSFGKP
The target in the next data set is A2A (h) (Homo sapiens, UniProt P29274). In words: Cerep Express Panel, agonist radioligand. The conditions noted are these: read-out: % Inhibition of reference (10 µM). In kind it is binding.
Data set [2] concerns range of other multiple myeloma cell lines. The data set is described as follows: Cell viability, other multiple myeloma cell lines. In kind it is cell-based. The conditions noted are these: treated for 7 days. The source says:
Figure S2 related to Figure 1 KDM5B Biochemical assay at different 2 -OG
Stem Cells (B) treated for 7 days. Data plotted represents the mean and standard deviation of four independent
2OG Concentration IC50 (mM) Ki […]

In another data set the test system is alpha 2 (non-selective). The data set is described as follows: Cerep Express Panel, antagonist radioligand. It counts as binding.

Entries after “also recorded” stand apart in the source; their conditions may differ.

Sequence of 5-HT6 (h) (P50406 whole entry): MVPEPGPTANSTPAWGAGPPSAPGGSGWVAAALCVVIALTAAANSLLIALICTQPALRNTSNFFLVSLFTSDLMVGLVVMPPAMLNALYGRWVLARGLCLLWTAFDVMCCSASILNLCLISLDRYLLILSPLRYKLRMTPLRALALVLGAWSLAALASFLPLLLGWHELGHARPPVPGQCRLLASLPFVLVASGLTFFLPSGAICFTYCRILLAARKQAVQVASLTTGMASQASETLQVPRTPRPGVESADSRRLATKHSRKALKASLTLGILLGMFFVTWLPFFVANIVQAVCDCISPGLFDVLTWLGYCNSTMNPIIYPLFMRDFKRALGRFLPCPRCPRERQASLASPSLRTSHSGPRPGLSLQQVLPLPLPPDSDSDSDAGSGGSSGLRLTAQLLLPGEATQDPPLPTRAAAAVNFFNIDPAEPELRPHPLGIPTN
Sequence of FIH (Q9NWT6 whole entry): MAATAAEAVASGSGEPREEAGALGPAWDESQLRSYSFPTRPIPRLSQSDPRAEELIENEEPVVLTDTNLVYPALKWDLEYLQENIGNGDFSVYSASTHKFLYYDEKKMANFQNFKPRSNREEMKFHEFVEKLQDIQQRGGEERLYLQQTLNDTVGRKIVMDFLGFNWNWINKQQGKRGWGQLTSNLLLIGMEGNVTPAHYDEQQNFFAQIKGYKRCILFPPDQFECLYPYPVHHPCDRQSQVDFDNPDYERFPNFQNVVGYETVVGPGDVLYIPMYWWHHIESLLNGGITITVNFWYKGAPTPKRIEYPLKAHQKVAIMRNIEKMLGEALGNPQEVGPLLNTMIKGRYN
Sequence of CCK1 (CCKA) (h) (P32238 whole entry): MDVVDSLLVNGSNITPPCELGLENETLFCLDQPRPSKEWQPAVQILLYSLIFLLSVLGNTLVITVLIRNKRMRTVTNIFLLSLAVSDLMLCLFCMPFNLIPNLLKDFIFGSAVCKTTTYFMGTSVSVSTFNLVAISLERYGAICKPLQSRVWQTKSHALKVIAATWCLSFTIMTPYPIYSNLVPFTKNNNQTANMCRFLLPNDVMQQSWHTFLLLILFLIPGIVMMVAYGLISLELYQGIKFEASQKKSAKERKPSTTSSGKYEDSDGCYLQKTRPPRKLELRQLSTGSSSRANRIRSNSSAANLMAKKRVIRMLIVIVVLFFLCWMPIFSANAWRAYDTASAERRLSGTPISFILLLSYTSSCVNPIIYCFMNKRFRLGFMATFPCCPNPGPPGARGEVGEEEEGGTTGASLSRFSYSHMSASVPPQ

As a reminder, the inhibition is the relative decrease from the control value, in per cent. Regarding `CCN(CCN(C)C)C(=O)CNCc1cc(C(N)=O)ccn1` [KDOAM-25], the inhibition at 10 µM is -3% on 5-HT6 (h); 10% on D1 (h); -8% on CCR1 (h); -6% at A3 (h); 5% at beta 1 (h); -3% at CCK1 (CCKA) (h). For the same molecule, the inhibition at 10 µM on beta 2 (h) is 5%; at GAL2 (h), -4%; on 5-HT2A (h), -6%; on A2A (h), -2%. The “pIC50 PHF8” value against PHF8 was found to be 5.0 ± 0.057. Besides, the “intrinsic clearance, in words” value in [1] is listed as “low intrinsic clearance”. Moreover, the microsomal CLint in [1] (read-out: HLM Clint) is 11.9 µL/min/mg. Moreover, the IC50 was at least 4.8 µM in the data set on other 2-OG oxygenases, over 100 µM on FIH and 31.6 µM at KDM3A. In addition, the “% Inhibition of reference (10 µM)” value with Na+ channel (site 2) is 7%; in the data set on SKCa channel, 5%; in the data set with alpha 2 (non-selective), -11%. Also, in the data set with H3K4me3 in MM1S cells, the “H3K4me3 level compared with the vehicle control” value is on record as “approximately twice”. Further, the “effect on viability of other multiple myeloma cells” value in [2] is recorded as “does not decrease cell viability; also recorded: did not show the same decrease in viability”.
